In ChEMBL document CHEMBL5375942, “Discovery of a Potent Chloroacetamide GPX4 Inhibitor with Bioavailability to Enable Target Engagement in Mice, a Potential Tool Compound for Inducing Ferroptosis In Vivo” (J Med Chem, 2023):
Each block holds one compound with its values, some of them ahead of it. Active and inactive are the calls of the source. The rule behind the calls is not given here.

What was measured:
[1] = Stability in human plasma assessed as half life; assay type: ADME, cell-free
[2] = Metabolic stability in human liver microsomes assessed as unbound intrinsic clearance; assay type: ADME, Microsome
NCI-H1703 [3] = assay: Induction of ferroptosis in human NCI-H1703 cells assessed as cell viability incubated for 72 hrs in presence of ferrostatin-1 by CellTiter-Glo luminescent cell viability assay; assay type: functional, cell-based; settings: NCI-H1703, 72 h
NCI-H1703 [4] = assay: Induction of ferroptosis in human NCI-H1703 cells assessed as cell viability incubated for 72 hrs by CellTiter-Glo luminescent cell viability assay; assay type: functional, cell-based; settings: NCI-H1703, 72 h
[5] = Stability in mouse plasma assessed as half life; assay type: ADME, cell-free
[6] = Metabolic stability in mouse liver microsomes assessed as unbound intrinsic clearance; assay type: ADME, Microsome
[7] = Unbound fraction in human plasma; assay type: ADME, cell-free
[8] = Unbound fraction in mouse plasma; assay type: ADME, cell-free
[9] = Aqueous solubility of the compound at pH 7; assay type: physicochemical
[10] = molecular target: Phospholipid hydroperoxide glutathione peroxidase GPX4 (Mus musculus) (UniProt O70325); assay: Target engagement at GPX4 in mouse 4T1 cells assessed as mass change between covalently bound protein and unbound protein at 0.01 to 1 ug/ml measured after 2 hrs by Western blot analysis; assay type: cell-based; settings: dose 0.01-1 µg/ml
Phospholipid hydroperoxide glutathione peroxidase GPX4 (Mus musculus), sequence (O70325 whole entry): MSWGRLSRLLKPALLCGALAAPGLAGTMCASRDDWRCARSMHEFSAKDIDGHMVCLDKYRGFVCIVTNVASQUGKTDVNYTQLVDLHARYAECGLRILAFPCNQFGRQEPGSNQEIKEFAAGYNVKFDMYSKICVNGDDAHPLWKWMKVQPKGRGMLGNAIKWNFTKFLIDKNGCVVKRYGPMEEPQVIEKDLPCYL

[11] = Plasma clearance in iv dosed mouse; assay type: ADME, organism-based
HT-1080 [12] = assay: Induction of ferroptosis in GPX4-dependent human HT-1080 cells assessed as cell viability incubated for 24 hrs in presence of 40% human plasma by time-course cell viability assay; assay type: functional, cell-based; settings: HT-1080, 24 h
[13] = molecular target: Phospholipid hydroperoxide glutathione peroxidase GPX4 (Mus musculus) (UniProt O70325); assay: In vivo inhibition of GPX4 in SCID/Beige mouse assessed as increase in malondialdehyde level in kidney homogenate at 100 to 200 mg/kg, ip by TBAR assay; assay type: functional, organism-based; settings: dose 100-200 mg/kg
HT-1080 [14] = assay: Induction of ferroptosis in GPX4-dependent human HT-1080 cells assessed as cell viability incubated for 6 hrs by time-course cell viability assay; assay type: functional, cell-based; settings: HT-1080, 6 h
WSUDLCL2 [15] = assay: In vivo target engagement at GPX4 in human WSUDLCL2 cells subcutaneously inoculated in CB17 SCID-Beige mouse assessed as target engagement in tumor at 50 to 100 mg/kg, ip measured upto day 20 by Western blot analysis; assay type: functional, organism-based; settings: dose 50-100 mg/kg
WSUDLCL2 [16] = assay: Induction of ferroptosis in human WSUDLCL2 cells assessed as cell viability incubated for 72 hrs in presence of liproxstatin-1 by CellTiter-Glo luminescent cell viability assay; assay type: functional, cell-based
HT-1080 [17] = assay: Induction of ferroptosis in GPX4-dependent human HT-1080 cells assessed as cell viability incubated for […] in presence of 40% human plasma by time-course cell viability assay; assay type: functional, cell-based
[18] = molecular target: Phospholipid hydroperoxide glutathione peroxidase GPX4 (Mus musculus) (UniProt O70325); assay: In vivo inhibition of GPX4 in SCID/Beige mouse assessed as fold increase in PTGS2 transcription in kidney homogenate at 100 to 200 mg/kg, ip by qPCR analysis relative to vehicle treated control; assay type: functional, organism-based; settings: dose 100-200 mg/kg
HT-1080 [19] = assay: Induction of ferroptosis in GPX4-dependent human HT-1080 cells assessed as cell viability incubated for 24 hrs by time-course cell viability assay; assay type: functional, cell-based; settings: HT-1080, 24 h
WSUDLCL2 [20] = assay: Induction of ferroptosis in human WSUDLCL2 cells assessed as cell viability incubated for 72 hrs by CellTiter-Glo luminescent cell viability assay; assay type: functional, cell-based
WSUDLCL2 [21] = assay: Induction of ferroptosis in human WSUDLCL2 cells assessed as cell viability incubated for 72 hrs in presence of ferrostatin-1 by CellTiter-Glo luminescent cell viability assay; assay type: functional, cell-based
HT-1080 [22] = assay: Induction of ferroptosis in GPX4-dependent human HT-1080 cells assessed as cell viability incubated for 6 hrs in presence of 40% human plasma by time-course cell viability assay; assay type: functional, cell-based; settings: HT-1080, 6 h
HT-1080 [23] = assay: Induction of ferroptosis in GPX4-dependent human HT-1080 cells assessed as cell viability incubated for […] by time-course cell viability assay; assay type: functional, cell-based
WSUDLCL2 [24] = assay: Effect on tumor volume in human WSUDLCL2 cells subcutaneously inoculated in CB17 SCID-Beige mouse tumor model at 50 to 100 mg/kg, ip measured upto day 20; assay type: functional, organism-based; settings: dose 50-100 mg/kg
[25] = molecular target: Phospholipid hydroperoxide glutathione peroxidase GPX4 (Mus musculus) (UniProt O70325); assay: In vivo inhibition of GPX4 in SCID/Beige mouse assessed as increase in malondialdehyde level in plasma at 100 to 200 mg/kg, ip by TBAR assay; assay type: functional, organism-based; settings: dose 100-200 mg/kg
HT-1080 [26] = assay: Induction of ferroptosis in GPX4-dependent human HT-1080 cells assessed as cell viability incubated for 3 hrs in presence of 40% human plasma by time-course cell viability assay; assay type: functional, cell-based; settings: HT-1080, 3 h
HT-1080 [27] = assay: Induction of ferroptosis in GPX4-dependent human HT-1080 cells assessed as cell viability incubated for 3 hrs by time-course cell viability assay; assay type: functional, cell-based; settings: HT-1080, 3 h
[28] = Aqueous solubility of the compound at pH 1; assay type: physicochemical
[29] = Cmax in CB17 SCID-Beige mouse subcutaneously inoculated with WSUDLCL2 cells at 100 mg/kg, sc; assay type: ADME, organism-based; set-up: dose 100 mg/kg, route sc; settings: in vivo
[30] = Half life in CB17 SCID-Beige mouse subcutaneously inoculated with WSUDLCL2 cells at 100 mg/kg, ip; assay type: ADME, organism-based; settings: in vivo
[31] = AUC in CB17 SCID-Beige mouse subcutaneously inoculated with WSUDLCL2 cells at 100 mg/kg, ip; assay type: ADME, organism-based; set-up: dose 100 mg/kg, route ip; settings: in vivo
[32] = Cmax in CB17 SCID-Beige mouse subcutaneously inoculated with WSUDLCL2 cells at 100 mg/kg, ip; assay type: ADME, organism-based; set-up: dose 100 mg/kg, route ip; settings: in vivo
HT-1080 [33] = assay: Induction of ferroptosis in GPX4-dependent human HT-1080 cells assessed as cell viability measured immediately after addition of compound by time-course cell viability assay; assay type: functional, cell-based
[34] = Half life in CB17 SCID-Beige mouse subcutaneously inoculated with WSUDLCL2 cells at 100 mg/kg, sc; assay type: ADME, organism-based; settings: in vivo
[35] = AUC in CB17 SCID-Beige mouse subcutaneously inoculated with WSUDLCL2 cells at 100 mg/kg, sc; assay type: ADME, organism-based; set-up: dose 100 mg/kg, route sc; settings: in vivo

SMILES: COC(=O)c1ccc([C@H]2c3[nH]c4ccccc4c3CCN2C(=O)CCl)cc1
half-life [1]: 1 h
EC50 (NCI-H1703 [4]): 1390 nM
half-life [5]: 0.2 h

SMILES: COC(=O)[C@H]1Cc2c([nH]c3ccccc23)[C@H](C2CCOCC2)N1C(=O)CCl
fraction unbound [7]: 0.31
fraction unbound [8]: 0.24
CL free [2]: 33 mL/min/kg
EC50 (NCI-H1703 [3]): > 10000 nM
EC50 (NCI-H1703 [4]): 3130 nM
CL free [6]: 353 mL/min/kg

SMILES: Cc1noc([C@H]2Cc3c([nH]c4ccccc34)[C@H](c3ccc(S(C)(=O)=O)cc3)N2C(=O)CCl)n1
half-life [1]: 2.92 h
CL free [2]: 31.7 mL/min/kg
EC50 (NCI-H1703 [3]): 2340 nM
EC50 (NCI-H1703 [4]): 37 nM
half-life [5]: 1.85 h
CL free [6]: 243 mL/min/kg

SMILES: COC(=O)c1ccc([C@@H]2c3[nH]c4ccccc4c3C[C@H](C(=O)OC)N2C(=O)CCl)cc1
Activity [10]: Active

SMILES: COC(=O)[C@H]1Cc2c([nH]c3ccccc23)[C@H](c2ccc(F)cc2F)N1C(=O)CCl
EC50 (NCI-H1703 [3]): 3950 nM
EC50 (NCI-H1703 [4]): 107 nM

SMILES: COC(=O)[C@H]1Cc2c([nH]c3ccccc23)[C@H](c2ccccc2)N1C(C)=O
half-life [1]: > 16 h
CL free [2]: 183 mL/min/kg
clearance [11]: 50 mL/min/kg
half-life [5]: 13.7 h
CL free [6]: 2682 mL/min/kg

SMILES: COC(=O)c1ccc([C@H]2c3[nH]c4ccccc4c3C[C@H](C(=O)OC)N2C(=O)CCl)cc1
solubility [28]: < 0.8 µM
EC50 (HT-1080 [12]): 880 nM
EC50 (HT-1080 [14]): 60 nM
Cmax [29]: 480 ng/mL
Activity (WSUDLCL2 [16]): inactive
EC50 (HT-1080 [17]): 1420 nM
half-life [1]: 14.6 h
half-life [30]: 1.8 h
CL free [2]: 195 mL/min/kg
solubility [9]: < 0.8 µM
AUC [31]: 2.79 µg/h/mL
Cmax [32]: 650 ng/mL
Activity (WSUDLCL2 [20]): Active
Activity (WSUDLCL2 [21]): inactive
Activity [10]: Active
EC50 (HT-1080 [22]): 750 nM
EC50 (HT-1080 [23]): 160 nM
clearance [11]: 478 mL/min/kg
EC50 (HT-1080 [33]): 590 nM
half-life [34]: 4.1 h
EC50 (HT-1080 [26]): 1010 nM
EC50 (NCI-H1703 [4]): 80 nM
half-life [5]: 0.167 h
EC50 (HT-1080 [27]): 80 nM
AUC [35]: 2.67 µg/h/mL
CL free [6]: 8720 mL/min/kg

SMILES: COC(=O)[C@H]1Cc2c([nH]c3ccccc23)[C@H](c2ccc(C(F)(F)F)nc2)N1C(=O)CCl
half-life [1]: 2.63 h
CL free [2]: 147 mL/min/kg
EC50 (NCI-H1703 [3]): > 10000 nM
EC50 (NCI-H1703 [4]): 42 nM
half-life [5]: 2.12 h
CL free [6]: 1060 mL/min/kg

SMILES: CC(C)OC(=O)[C@H]1Cc2c([nH]c3ccccc23)[C@H](c2ccccc2)N1C(=O)CCl
fraction unbound [7]: 0.011
half-life [1]: 6.18 h
CL free [2]: 505 mL/min/kg
EC50 (NCI-H1703 [3]): > 10000 nM
EC50 (NCI-H1703 [4]): 265 nM
half-life [5]: 2.77 h
CL free [6]: 5810 mL/min/kg

Further lines, with some results ahead:

half-life [1]: 4.23 h
CL free [2]: 45 mL/min/kg
EC50 (NCI-H1703 [3]): 5660 nM
EC50 (NCI-H1703 [4]): 570 nM
half-life [5]: 0.167 h
CL free [6]: 563 mL/min/kg
SMILES: COC(=O)[C@H]1Cc2c([nH]c3ccccc23)[C@H](c2cccc(S(C)(=O)=O)c2)N1C(=O)CCl

half-life [1]: 3.33 h
CL free [2]: 28.3 mL/min/kg
EC50 (NCI-H1703 [3]): 2450 nM
solubility [9]: > 200 µM
EC50 (NCI-H1703 [4]): 118 nM
half-life [5]: 2.77 h
CL free [6]: 235 mL/min/kg
SMILES: COC(=O)[C@H]1Cc2c([nH]c3ccccc23)[C@H](c2ccc(S(C)(=O)=O)nc2)N1C(=O)CCl

EC50 (HT-1080 [12]): 520 nM
Activity [13]: Active
EC50 (HT-1080 [14]): 170 nM
EC50 (HT-1080 [17]): 1260 nM
Activity [18]: Active
fold change (FC) [18]: 8
EC50 (HT-1080 [19]): 90 nM
EC50 (NCI-H1703 [3]): 4740 nM
EC50 (HT-1080 [22]): 490 nM
EC50 (HT-1080 [23]): 850 nM
Activity [25]: Active
EC50 (HT-1080 [26]): 770 nM
EC50 (NCI-H1703 [4]): 117 nM
EC50 (HT-1080 [27]): 270 nM
SMILES: COC(=O)[C@H]1Cc2c([nH]c3ccccc23)[C@H](c2ccc(S(C)(=O)=O)cc2)N1C(=O)CCl
Activity (WSUDLCL2 [15]): Active
Activity (WSUDLCL2 [16]): inactive
Activity (WSUDLCL2 [20]): Active
Activity (WSUDLCL2 [21]): inactive
Activity (WSUDLCL2 [24]): inactive

half-life [1]: 4.03 h
CL free [2]: 35 mL/min/kg
EC50 (NCI-H1703 [3]): > 10000 nM
EC50 (NCI-H1703 [4]): 973 nM
half-life [5]: 1.33 h
CL free [6]: 348 mL/min/kg
SMILES: COC(=O)[C@H]1Cc2c([nH]c3ccccc23)[C@H](c2ccc(S(C)(=O)=O)cn2)N1C(=O)CCl
